Assay results as given in US8147838B2, “Peptide” (priority 2005, dated 2012).
No end group written: not given here.

Experiments:
[1] = biological target: T1, MHC class I allele A*0301 (A3) (Homo sapiens, UniProt P04439); experiment: iTopia peptide binding assay, A*0301; details: percent of positive control peptide binding; peptide at 1.11×10^−5M
Procedure: (§1) The 9 mers were tested for Peptide Binding, Off Rate and Affinity using iTopia Epitope Discovery System in accordance with the manufacturer's instructions. Briefly, 96 well microtitre plates coated with MHC molecules representing different MHC alleles are used to identify candidate peptides. […] Determinations are performed in duplicate using an ELISA plate reader and included allele specific positive controls.
(§2) i) Peptide Binding—This assay measures the ability of individual peptides to bind to the MHC molecules under standardized optimal binding conditions. The assay is performed for all the test peptides across the selected MHC alleles. The test peptides identified as “binders” are characterized further in terms of affinity and dissociation experiments.
(§3) Following a period of binding under optimal conditions, excess antibody is removed and a measurement of total fluorescence taken (D).
(§4) The binding of the test peptides to the MHC molecules was performed at 1.11×10^−5M of peptide under optimal, standardised test conditions. A control peptide was run in parallel on the same plate and at the same concentration as the test peptides.
(§5) The level of binding is expressed as a percent of positive control peptide binding for each allele.

[2] = biological target: T2, MHC class I allele B*0702 (B7) (Homo sapiens, UniProt P01889); experiment: iTopia peptide binding assay, B*0702; details: percent of positive control peptide binding; peptide at 1.11×10^−5M
Procedure: as §1, §2, §3, §4, §5

[3] = biological target: T3, MHC class I allele A*0201 (A2) (Homo sapiens, UniProt P04439, D140Y/D185E/D98H/E176V/E277Q/G131W/G231S/I119V/I121R/I166T/I218V/L300P/L318F/N151K/N90K/P208A/P217A/Q86G/Q94H/R138H/R169H/T345S); experiment: iTopia peptide binding assay, A*0201; details: percent of positive control peptide binding; peptide at 1.11×10^−5M
Procedure: as §1, §2, §3, §4, §5

[4] = biological target: T4, MHC class I allele A*0101 (A1) (Homo sapiens, UniProt P04439, A114D/A174V/A182V/D101N/D185E/E176A/E190D/L180R/Q94H/R68K/S129P/T187R/V100A/V91M/W191G); experiment: iTopia peptide binding assay, A*0101; details: percent of positive control peptide binding; peptide at 1.11×10^−5M
Procedure: as §1, §2, §3, §4, §5

[5] = biological target: T2, MHC class I allele B*0702 (B7); experiment: iScore multi-parametric analysis, B*0702; details: level of binding: >0.5, 0.25-0.5, <0.25
Procedure, shortened: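 iScore integrates peptide-MHC complex half-life and ED50 into a single multi-parametric value reflecting overall binding quality.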

[6] = biological target: T3, MHC class I allele A*0201 (A2); experiment: iScore multi-parametric analysis, A*0201; type: binding; details: level of binding: >0.5, 0.25-0.5, <0.25
Procedure, shortened: (§6)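 Composite binding-quality index from multiparametric analysis of peptide–MHC half-life and ED50. Thresholds established on A*0201 (>0.5, 0.25–0.5, <0.25) are allele-specific and not necessarily applicable to A*0301, A*0101 or B*0702.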

[7] = biological target: T1, MHC class I allele A*0301 (A3); experiment: iScore multi-parametric analysis, A*0301; type: binding; details: for iScore, MHC Class I Molecule A*0301: level of binding: >0.5, 0.25-0.5, <0.25
Procedure, shortened: as §6

[8] = biological target: T4, MHC class I allele A*0101 (A1); experiment: iScore multi-parametric analysis, A*0101; type: binding; details: for iScore, MHC Class I Molecule A*0101: level of binding: >0.5, 0.25-0.5, <0.25
Procedure, shortened: as §6

| Sequence | Peptide binding, MHC Class I Molecule A*0301 [1] | Peptide binding, MHC Class I Molecule B*0702 [2] | Peptide binding, MHC Class I Molecule A*0201 [3] | Peptide binding, MHC Class I Molecule A*0101 [4] | iScore, MHC Class I Molecule B*0702 [5] | iScore, MHC Class I Molecule A*0201 [6] | iScore, MHC Class I Molecule A*0301 [7] | iScore, MHC Class I Molecule A*0101 [8] | iScore (iTopia), A*0301 ([7]; integrates half-life and ED50) | iScore (iTopia), A*0101 ([8]; integrates half-life and ED50) |
| --- | --- | --- | --- | --- | --- | --- | --- | --- | --- | --- |
| DCHMADMVT [Peptide 150] | 3 % of control | 5 % of control | 7 % of control | 0 % of control | – | – | – | – | – | – |
| LYLPRDVLA [Peptide 112] | – | – | – | – | 0 | 0.218 | 0 | 0 | – | – |
| QNRSFEGMV [Peptide 96] | – | – | – | – | 0 | 0.052 | 0 | 0 | – | – |
| LELASNHFL [Peptide 108] | – | – | – | – | 0 | 0.151 | 0 | 0 | – | – |
| GAFARRPPL [Peptide 55] | – | – | – | – | 0.359 | 0.222 | 0 | 0 | – | – |
| AYVRNLFLT [Peptide 46] | – | – | – | – | 0 | 0.18 | 0 | 0 | – | – |
| SYVFLGIVL [Peptide 178] | – | – | – | – | 0.045 | 0.118 | 0 | 0 | – | – |
| ASVSAPSPL [Peptide 84] | – | – | – | – | 0.017 | 0.059 | 0 | 0 | – | – |
| LEDNALKVL [Peptide 133] | – | – | – | – | 0 | 0.122 | 0 | 0 | – | – |
| MVTWLKETE [Peptide 153] | – | – | – | – | 0 | 0.051 | 0 | 0 | – | – |
| LASNHFLYL [Peptide 109] | – | – | – | – | 0 | 0.337 | 0.224 | 0.12 | 0.224 | 0.12 |
| SLVSLTYVS [Peptide 123] | – | – | – | – | 0 | 0.206 | 0 | 0 | – | – |
| TLAELQGLP [Peptide 139] | – | – | – | – | 0 | 0.083 | 0 | 0 | – | – |
| KWMHNIRDA [Peptide 192] | – | – | – | – | 0 | 0.045 | 0 | 0 | – | – |
| DGRLRLARL [Peptide 7] | – | – | – | – | 0.038 | 0 | 0 | 0 | – | – |
| TSSASSFSS [Peptide 18] | – | – | – | – | 0 | 0.037 | 0 | 0 | – | – |

| Sequence | Peptide binding, MHC Class I Molecule A*0301 [1] | Peptide binding, MHC Class I Molecule B*0702 [2] | Peptide binding, MHC Class I Molecule A*0201 [3] | Peptide binding, MHC Class I Molecule A*0101 [4] | iScore, MHC Class I Molecule B*0702 [5] | iScore, MHC Class I Molecule A*0201 [6] | iScore, MHC Class I Molecule A*0301 [7] | iScore, MHC Class I Molecule A*0101 [8] | iScore (iTopia), A*0301 ([7]; integrates half-life and ED50) | iScore (iTopia), A*0101 ([8]; integrates half-life and ED50) |
| --- | --- | --- | --- | --- | --- | --- | --- | --- | --- | --- |
| LLAGRALQG [Peptide 102] | – | – | – | – | 0 | 0.176 | 0 | 0 | – | – |
| LQGLPHIRV [Peptide 141] | – | – | – | – | 0 | 0.2 | 0 | 0 | – | – |
| RNLTHLESL [Peptide 128] | – | – | – | – | 0 | 0.072 | 0 | 0 | – | – |
| GSRLDEVRA [Peptide 64] | – | – | – | – | 0 | 0.13 | 0 | 0 | – | – |
| LDLSNNSLV [Peptide 120] | – | – | – | – | 0 | 0.158 | 0 | 0 | – | – |
| TWLKETEVV [Peptide 154] | – | – | – | – | 0 | 0.184 | 0 | 0 | – | – |
| MHNIRDACR [Peptide 193] | – | – | – | – | 0 | 0.093 | 0 | 0 | – | – |
| RGPAAGDGR [Peptide 4] | – | – | – | – | 0 | 0.032 | 0 | 0 | – | – |
| LLGWVSSSS [Peptide 13] | – | – | – | – | 0 | 0.243 | 0 | 0 | – | – |
| LAVLPAGAF [Peptide 52] | – | – | – | – | 0.049 | 0.074 | 0 | 0 | – | – |
| GLRRLELAS [Peptide 106] | – | – | – | – | 0 | 0.046 | 0 | 0 | – | – |
| YPEKMRNRV [Peptide 163] | – | – | – | – | 0.242 | 0 | 0 | 0 | – | – |
| SSFSSSAPF [Peptide 20] | – | – | – | – | 0 | 0.037 | 0 | 0 | – | – |
| ILNHIVPPE [Peptide 90] | – | – | – | – | 0 | 0.426 | 0 | 0 | – | – |
| EKMRNRVLL [Peptide 164] | – | – | – | – | 0 | 0.096 | 0 | 0 | – | – |
